{"source": "patent US5580542A", "about": "“Method of testing for nephritis” (Kureha Kagaku Kogyo K.K., priority 1993, dated 1996)", "key": {"[1]": {"experiment": "Test 2: urinal AcPAH/PAH ratio after Na-PAH in renal arterial ligature rats", "format": "in vivo, Sprague-Dawley male rats", "conditions": "40 mg Na-PAH single shot jugular vein, 24 h urine; for urinal AcPAH/PAH ratio, individual rats: day 37 after operation", "protocol": "In this test, an investigation was conducted about the relationship, if any, between the degree of ligature of the renal artery, which serves as an index for the degree of progress of the pathema of a kidney disease, and the concentration ratio of p-acetyl-aminohippuric acid (AcPAH) to p-aminohippuric acid (PAH) in urine.\nDepending on whether the renal arterial carina ligating method was applied and if so, how tight the ligating method as applied, the rats were divided into three groups, each consisting of three of the rats, that is, a sham-operation group (i.e., control), a 1/2 renal arterial ligature group (only one kidney was functioning) and a 5/6 renal arterial ligature group. On the 37th day after the operation, an aqueous solution of 40 mg of sodium p-aminohippurate (Na-PAH) in 200 μl of distilled water was administered as a single shot to the jugular vein of each rat under anesthesia with ethyl ether. The rat was then immediately placed in metabolism test cage, and urine was collected over 24 hours. The concentrations of AcPAH and PAH in urine were analyzed by high-performanceliquid chromatography in a manner to be described subsequently herein, whereby the ratio of AcPAH to PAH (AcPAH/PAH) was determined.\nNamely, 150 μl of methanol, which contained 1 μg of vanillic acid as an internal standard substance, were added to 50 μl of fivefold dilute urine. After the resulting mixture was stirred and centrifuged, the supernatant was collected and was subjected to filtration by centrifugation. By high-performance liquid chromatography, 10 μl of the supernant so obtained were quantitatively analyzed under the following analysis conditions:\nColumn: \"Unisil Pack 250B\" (trade name, product of GL Science Inc.)\nMobile phase: water/acetic acid/acetonitrile=93.5/0.5/6 (pH 3, approximately)\nColumn oven temperature: 40° C."}, "[2]": {"experiment": "Test 3: time-dependent stability of urinal AcPAH/PAH ratio after Na-PAH", "format": "in vivo, Sprague-Dawley male rats", "conditions": "40 mg Na-PAH single shot jugular vein, 24 h urine, test repeated 7 times on different days", "protocol": "In this test, an investigation was conducted about the time-dependent stability of test results which were obtained using an acetyltransferase activity measuring agent according to the present invention.\nAn aqueous solution of 40 mg of sodium p-aminohippurate (Na-PAH) in 200 μl of distilled water was administered as a single shot to the jugular vein of each rat under anesthesia with ethyl ether. The rat was then immediately placed in metabolism test cage, and urine was collected over 24 hours. The concentrations of AcPAH and PAH in urine were analyzed as in Test 2, whereby the AcPAH/PAH ratio was determined. The above test was repeated 7 times on different days so that its average value, standard deviation (S.D.) and coefficient of variations (C.V.) were determined."}, "[3]": {"experiment": "Test 4: concentrations of PAH and AcPAH in blood after Na-PAH", "format": "in vivo, Sprague-Dawley male rats", "conditions": "40 mg Na-PAH single shot jugular vein; serum at 30, 60, 90, 120 minutes", "protocol": "In the test, the rate of secretion of an acetyltransferase activity measuring agent according to this invention into urine was tested.\nAn aqueous solution of 40 mg of sodium p-aminohippurate (Na-PAH) in 200 μl of distilled water was administered as a single shot to the jugular vein of each rat under anesthesia with ethyl ether. Upon elapsed time of 30 minutes, 60 minutes, 90 minutes and 120 minutes, the concentrations of PAH and AcPAH in blood were measured by high-performance liquid chromatography. Serum was used in an amount of 50 μl each time. The pretreatment method and analysis conditions were the same as in Test 2."}, "IEC-18": {"test_system": "IEC-18", "experiment": "Test 1: acetyltransferase activity, conversion of p-aminobenzoic acid to p-acetamidobenzoic acid in culture (GC-MS)", "format": "cell-based, rat", "conditions": "IEC-18 (small intestine); culture medium after 2 to 3 days", "protocol": "(§1) In this test, the activity of acetyltransferase was evaluated by an in-vitro experiment with respect to p-aminobenzoic acid.\n(§2) The left and right kidneys of 7 weeks-old Sprague-Dawley female rats were excised. After the renal cortices were shredded, mesangial cells were prepared by the Sieving's method. For the sake of comparison, \"A7r5\" (trade name, derived from fetal thoracic aortic smooth muscle), \"Clone 9\" (trade name. derived from liver), \"H9 c2 (2-1)\" (trade name, derived from cardiorhabdium), \"IEC-18\" (trade name, derived from the small intestine) and \"NRK-52E\" (trade name, derived from epithelial cells of renal tubule), all products of Flow Corp., U.S.A., were used as cells derived from rats.\n(§3) Using as a culture medium \"RPMI-1640\" (trade name; product of Flow Corp.; U.S.A.) added with fetal bovine serum (product of GIBCO Corp.) whose concentration was finally 10% in the medium, those cells were cultured in a 5% CO2 incubator. Since the p-amionbenzoic acid contained in RPMI-1640 was converted to p-acetamidobenzoic acid by the above culture, detection was conducted with respect to the p-acetamidobenzoic acid so converted.\n(§4) Namely, 2 ml of each culture medium after the lapse of 2 to 3 days since its culture were subjected to centrifugal ultrafiltration to eliminate proteins. One ml of the filtrate was added with 30 μl of 1N hydrochloric acid to adjust the pH to pH 1. Added next were 10 μg of p-pentylbenzoic acid, as an internal standard, and 0.5 g NaCl. The resulting mixture was shaken three times together with 3 ml portions of ethyl acetate to conduct liquid/liquid extraction of the organic acid component. After the extract was dried under a nitrogen gas stream, 40 μl of N,O-bis(trimethylsilyl)trifluoroacetamide and 10 μl of trimethylchlorosilane were added. The resulting mixture was stirred at 60° C. for 1 hour so that the organic acid component was trimethylsilylated. The trimethylsilylated organic acid component was then detected by gas chromatography mass spectrometry. The activity of acetyltransferase was evaluated by the relative height of a peak corresponding to p-acetamidobenzoic acid. The following evaluation standard was employed:-: smaller than 50,000,+: 50,000 or greater but smaller than 500,000, ++: 500,000 or greater, all in terms of abundance."}, "A7r5": {"test_system": "A7r5", "experiment": "Test 1: acetyltransferase activity, conversion of p-aminobenzoic acid to p-acetamidobenzoic acid in culture (GC-MS)", "format": "cell-based, rat", "conditions": "A7r5 (fetal thoracic aortic smooth muscle); culture medium after 2 to 3 days", "protocol": "as §1, §2, §3, §4"}, "H9c2(2-1)": {"test_system": "H9c2(2-1)", "experiment": "Test 1: acetyltransferase activity, conversion of p-aminobenzoic acid to p-acetamidobenzoic acid in culture (GC-MS)", "format": "cell-based, rat", "conditions": "H9c2(2-1) (cardiorhabdium); culture medium after 2 to 3 days", "protocol": "as §1, §2, §3, §4"}, "NRK-52E": {"test_system": "NRK-52E", "experiment": "Test 1: acetyltransferase activity, conversion of p-aminobenzoic acid to p-acetamidobenzoic acid in culture (GC-MS)", "format": "cell-based, rat", "conditions": "NRK-52E (epithelial cells of renal tubule); culture medium after 2 to 3 days", "protocol": "as §1, §2, §3, §4"}, "Mesangial cells": {"test_system": "Mesangial cells", "experiment": "Test 1: acetyltransferase activity, conversion of p-aminobenzoic acid to p-acetamidobenzoic acid in culture (GC-MS)", "format": "cell-based, rat", "protocol": "as §1, §2, §3, §4"}, "Clone 9": {"test_system": "Clone 9", "experiment": "Test 1: acetyltransferase activity, conversion of p-aminobenzoic acid to p-acetamidobenzoic acid in culture (GC-MS)", "format": "cell-based, rat", "conditions": "Clone 9 (liver); culture medium after 2 to 3 days", "protocol": "as §1, §2, §3, §4"}, "[4]": {"conditions": "1/2 Renal arterial ligature group (n = 3)"}, "[5]": {"conditions": "5/6 Renal arterial ligature group (n = 3)"}}, "note": "Values joined by “and” are separate entries in the source; they are usually repeats but may differ in a detail not shown here. Identical values can stand only once."}
{"smiles": "Nc1ccc(C(=O)NCC(=O)[O-])cc1.[Na+]", "values": [{"measurement": "urinal AcPAH/PAH ratio, Ave.", "setting": "[1]; [4]", "value": 0.146}, {"measurement": "urinal AcPAH/PAH ratio, individual rats", "setting": "[1]; [4]", "value": "0.144 and 0.153 and 0.141"}, {"measurement": "urinal AcPAH/PAH ratio, Ave.", "setting": "[1]; [5]", "value": 0.250}, {"measurement": "urinal AcPAH/PAH ratio, individual rats", "setting": "[1]; [5]", "value": "0.236 and 0.242 and 0.272"}, {"measurement": "urinal AcPAH/PAH ratio, Ave.", "setting": "[1]; Sham-operation group (n = 3)", "value": 0.125}, {"measurement": "urinal AcPAH/PAH ratio, individual rats", "setting": "[1]; Sham-operation group (n = 3)", "value": "0.132 and 0.121 and 0.123"}, {"measurement": "Urinal AcPAH/PAH, Ave.", "setting": "[2]; Rat #1", "value": 0.125}, {"measurement": "Urinal AcPAH/PAH, Ave.", "setting": "[2]; Rat #2", "value": 0.100}, {"measurement": "Urinal AcPAH/PAH, Ave.", "setting": "[2]; Rat #3", "value": 0.131}]}
{"smiles": "CC(=O)Nc1ccc(C(=O)NCC(=O)O)cc1", "note": "[AcPAH, p-acetyl-aminohippuric acid]", "values": [{"measurement": "concentration of metabolite AcPAH in blood versus time (FIG. 2)", "setting": "[3]", "value": "becomes low in concentration in 120 minutes after the administration"}]}
{"smiles": "Nc1ccc(C(=O)O)cc1", "note": "[p-aminobenzoic acid]", "values": [{"measurement": "Evaluation results: activity of acetyltransferase by relative height of peak corresponding to p-acetamidobenzoic acid", "setting": "IEC-18", "value": "- (smaller than 50,000)"}, {"measurement": "Evaluation results: activity of acetyltransferase by relative height of peak corresponding to p-acetamidobenzoic acid", "setting": "A7r5", "value": "- (smaller than 50,000)"}, {"measurement": "Evaluation results: activity of acetyltransferase by relative height of peak corresponding to p-acetamidobenzoic acid", "setting": "H9c2(2-1)", "value": "- (smaller than 50,000)"}, {"measurement": "Evaluation results: activity of acetyltransferase by relative height of peak corresponding to p-acetamidobenzoic acid", "setting": "NRK-52E", "value": "- (smaller than 50,000)"}, {"measurement": "N-acetyltransferase activity to p-aminobenzoic acid (in words)", "setting": "Mesangial cells; Mesangial cells", "value": "confirmed to have N-acetyltransferase activity"}, {"measurement": "Evaluation results: activity of acetyltransferase by relative height of peak corresponding to p-acetamidobenzoic acid", "setting": "Mesangial cells; Mesangial cells from rat renal cortex, culture medium after 2 to 3 days", "value": "++ (500,000 or greater)"}, {"measurement": "Evaluation results: activity of acetyltransferase by relative height of peak corresponding to p-acetamidobenzoic acid", "setting": "Clone 9", "value": "- (smaller than 50,000)"}]}
{"smiles": "Nc1ccc(C(=O)NCC(=O)O)cc1", "note": "[PAH, p-aminohippuric acid]", "values": [{"measurement": "elimination of PAH from blood (concentration in blood versus time, FIG. 1)", "setting": "[3]", "value": "substantially eliminated from blood in 120 minutes after the administration"}]}
